System: microorganisms from different sectors (molds, yeasts, bacteria)
Source text: The product obtained in example 2 was used in a test of antimicrobial activity.

Q: Which minimum inhibitory concentrations does the source give for “n-alkyldimethylethylbenzylammonium Sorbate [Example 2]” here?
A: Very low

Reference: patent publication US20040115249A1, “Ionic compounds of quaternary ammonium cations with anions of preservation acids, preparation thereof, and use thereof for preservation” (priority 2002, published 2004)
